Results reported in ChEMBL document CHEMBL5579832, “Design, synthesis, and biological evaluation of pyrido[2,3-d]pyrimidin-7(8H)-one derivatives as potent USP1 inhibitors” (Eur J Med Chem, 2024).
Calls of active or inactive are those of the source. No cut-off for these calls is given here.

Key:
[1] = Cmax in male ICR mouse at 10 mg/kg, po administered as single dose and measured after 24 hrs; assay type: ADME, organism-based; conditions: in vivo
[2] = Half life in male ICR mouse at 10 mg/kg, po administered as single dose and measured after 24 hrs; assay type: ADME, organism-based; conditions: in vivo
[3] = tested on: MDA-MB-436; assay: Induction of cell cycle arrest in human MDA-MB-436 cells assessed as increase in cells at S phase at 1 uM incubated for 24 hrs by PI staining based flow cytometry analysis; assay type: functional
[4] = target: Ubiquitin carboxyl-terminal hydrolase 7 (Homo sapiens) (UniProt Q93009); assay: Inhibition of recombinant human 8His-tagged USP7 using diubiquitin as a substrate at 0 to 10 uM preincubated for 15 mins followed by substrate addition and measured after 2 hrs by SDS-PAGE analysis; conditions: dose 0-10 µM, time 135.0 min
[5] = target: Ubiquitin carboxyl-terminal hydrolase 9X (Homo sapiens) (UniProt Q93008); assay: Inhibition of USP9X (unknown origin) using diubiquitin as a substrate at 0 to 10 uM preincubated for 15 mins followed by substrate addition and measured after 2 hrs by SDS-PAGE analysis; conditions: dose 0-10 µM, time 135.0 min
[6] = target: T1, Ubiquitin carboxyl-terminal hydrolase 15 (Homo sapiens) (UniProt Q9Y4E8); assay: Inhibition of recombinant human 6His-tagged USP15 using diubiquitin as a substrate at 0 to 10 uM preincubated for 15 mins followed by substrate addition and measured after 2 hrs by SDS-PAGE analysis; conditions: dose 0-10 µM, time 135.0 min
T1 sequence (whole entry): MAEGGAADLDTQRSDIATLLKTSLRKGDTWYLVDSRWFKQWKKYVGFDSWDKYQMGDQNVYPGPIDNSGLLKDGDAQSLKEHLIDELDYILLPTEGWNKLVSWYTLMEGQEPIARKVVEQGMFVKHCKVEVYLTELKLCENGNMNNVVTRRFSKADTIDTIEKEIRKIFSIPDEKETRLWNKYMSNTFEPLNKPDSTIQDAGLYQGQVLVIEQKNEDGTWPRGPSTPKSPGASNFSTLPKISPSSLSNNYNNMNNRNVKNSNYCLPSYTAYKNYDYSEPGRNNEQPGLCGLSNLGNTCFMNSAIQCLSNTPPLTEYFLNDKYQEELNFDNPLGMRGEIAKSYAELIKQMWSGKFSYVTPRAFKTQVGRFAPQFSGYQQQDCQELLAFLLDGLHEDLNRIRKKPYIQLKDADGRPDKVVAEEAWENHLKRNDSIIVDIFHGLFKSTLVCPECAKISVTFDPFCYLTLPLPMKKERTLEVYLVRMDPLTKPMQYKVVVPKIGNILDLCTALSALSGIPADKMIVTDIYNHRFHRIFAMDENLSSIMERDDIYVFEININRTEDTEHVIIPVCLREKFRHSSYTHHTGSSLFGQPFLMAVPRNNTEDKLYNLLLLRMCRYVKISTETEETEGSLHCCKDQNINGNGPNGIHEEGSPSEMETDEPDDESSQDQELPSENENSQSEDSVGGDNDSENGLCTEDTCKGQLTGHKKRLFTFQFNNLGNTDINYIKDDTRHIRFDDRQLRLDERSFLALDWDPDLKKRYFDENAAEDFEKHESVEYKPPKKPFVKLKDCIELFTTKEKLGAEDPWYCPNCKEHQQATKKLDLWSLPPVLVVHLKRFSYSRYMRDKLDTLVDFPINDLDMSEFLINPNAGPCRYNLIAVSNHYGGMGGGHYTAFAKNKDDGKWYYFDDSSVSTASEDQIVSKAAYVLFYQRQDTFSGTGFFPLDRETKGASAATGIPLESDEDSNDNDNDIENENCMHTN

[7] = target: T2, Ubiquitin carboxyl-terminal hydrolase 25 (Homo sapiens) (UniProt Q9UHP3); assay: Inhibition of recombinant human 6His-tagged USP25 using diubiquitin as a substrate at 0 to 10 uM preincubated for 15 mins followed by substrate addition and measured after 2 hrs by SDS-PAGE analysis; conditions: dose 0-10 µM, time 135.0 min
T2 sequence (whole entry): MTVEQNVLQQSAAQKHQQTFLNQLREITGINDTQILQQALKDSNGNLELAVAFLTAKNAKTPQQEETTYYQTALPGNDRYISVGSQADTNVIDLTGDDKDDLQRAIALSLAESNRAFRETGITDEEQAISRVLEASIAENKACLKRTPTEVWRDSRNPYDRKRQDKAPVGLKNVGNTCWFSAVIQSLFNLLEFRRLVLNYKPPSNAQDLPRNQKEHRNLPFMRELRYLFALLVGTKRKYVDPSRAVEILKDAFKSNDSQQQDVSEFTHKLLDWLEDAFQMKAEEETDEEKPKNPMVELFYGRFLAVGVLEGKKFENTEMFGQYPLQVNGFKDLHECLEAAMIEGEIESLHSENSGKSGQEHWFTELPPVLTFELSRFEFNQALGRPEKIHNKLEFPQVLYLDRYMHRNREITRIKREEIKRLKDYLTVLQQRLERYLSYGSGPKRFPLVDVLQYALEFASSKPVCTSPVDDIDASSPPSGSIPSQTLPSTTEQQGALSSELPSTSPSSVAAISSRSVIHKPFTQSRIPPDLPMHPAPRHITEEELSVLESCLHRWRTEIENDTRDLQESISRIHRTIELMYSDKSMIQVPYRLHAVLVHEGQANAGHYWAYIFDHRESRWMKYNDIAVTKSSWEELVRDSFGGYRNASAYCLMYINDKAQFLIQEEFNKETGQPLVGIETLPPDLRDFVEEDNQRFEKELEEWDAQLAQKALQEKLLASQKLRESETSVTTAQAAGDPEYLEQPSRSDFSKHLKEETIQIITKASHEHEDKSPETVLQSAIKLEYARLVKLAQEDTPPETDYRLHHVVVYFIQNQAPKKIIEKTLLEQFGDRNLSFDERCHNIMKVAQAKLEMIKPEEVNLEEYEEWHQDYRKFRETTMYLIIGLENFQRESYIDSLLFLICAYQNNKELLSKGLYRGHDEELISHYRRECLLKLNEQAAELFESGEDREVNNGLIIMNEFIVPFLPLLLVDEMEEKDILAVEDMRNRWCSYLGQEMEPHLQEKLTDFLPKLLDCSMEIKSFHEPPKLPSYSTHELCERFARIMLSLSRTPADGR

[8] = target: Ubiquitin carboxyl-terminal hydrolase 1/WD repeat-containing protein 48 (Homo sapiens) (UniProt O94782+Q8TAF3); assay: Inhibition of USP1/UAF1 in human MDA-MB-436 cells assessed as increase in Ub-PCNA level at 20 nM incubated for 24 hrs by Western blot analysis; assay type: cell-based
[9] = tested on: Olaparib-resistant MDA-MB-436; assay: Induction of cell cycle arrest in human Olaparib-resistant MDA-MB-436 cell assessed as increase in cells at S phase at 1 uM incubated for 24 hrs by PI staining based flow cytometry analysis; assay type: functional
[10] = tested on: Olaparib-resistant MDA-MB-436; assay: Inhibition of colony formation in human Olaparib-resistant MDA-MB-436 cell at 100 nM measured after 7 days by SRB staining based assay relative to control; assay type: functional; conditions: Olaparib-resistant MDA-MB-436, 168 h, time 7 day

Sequence of Ubiquitin carboxyl-terminal hydrolase 9X (Homo sapiens) (Q93008 whole entry): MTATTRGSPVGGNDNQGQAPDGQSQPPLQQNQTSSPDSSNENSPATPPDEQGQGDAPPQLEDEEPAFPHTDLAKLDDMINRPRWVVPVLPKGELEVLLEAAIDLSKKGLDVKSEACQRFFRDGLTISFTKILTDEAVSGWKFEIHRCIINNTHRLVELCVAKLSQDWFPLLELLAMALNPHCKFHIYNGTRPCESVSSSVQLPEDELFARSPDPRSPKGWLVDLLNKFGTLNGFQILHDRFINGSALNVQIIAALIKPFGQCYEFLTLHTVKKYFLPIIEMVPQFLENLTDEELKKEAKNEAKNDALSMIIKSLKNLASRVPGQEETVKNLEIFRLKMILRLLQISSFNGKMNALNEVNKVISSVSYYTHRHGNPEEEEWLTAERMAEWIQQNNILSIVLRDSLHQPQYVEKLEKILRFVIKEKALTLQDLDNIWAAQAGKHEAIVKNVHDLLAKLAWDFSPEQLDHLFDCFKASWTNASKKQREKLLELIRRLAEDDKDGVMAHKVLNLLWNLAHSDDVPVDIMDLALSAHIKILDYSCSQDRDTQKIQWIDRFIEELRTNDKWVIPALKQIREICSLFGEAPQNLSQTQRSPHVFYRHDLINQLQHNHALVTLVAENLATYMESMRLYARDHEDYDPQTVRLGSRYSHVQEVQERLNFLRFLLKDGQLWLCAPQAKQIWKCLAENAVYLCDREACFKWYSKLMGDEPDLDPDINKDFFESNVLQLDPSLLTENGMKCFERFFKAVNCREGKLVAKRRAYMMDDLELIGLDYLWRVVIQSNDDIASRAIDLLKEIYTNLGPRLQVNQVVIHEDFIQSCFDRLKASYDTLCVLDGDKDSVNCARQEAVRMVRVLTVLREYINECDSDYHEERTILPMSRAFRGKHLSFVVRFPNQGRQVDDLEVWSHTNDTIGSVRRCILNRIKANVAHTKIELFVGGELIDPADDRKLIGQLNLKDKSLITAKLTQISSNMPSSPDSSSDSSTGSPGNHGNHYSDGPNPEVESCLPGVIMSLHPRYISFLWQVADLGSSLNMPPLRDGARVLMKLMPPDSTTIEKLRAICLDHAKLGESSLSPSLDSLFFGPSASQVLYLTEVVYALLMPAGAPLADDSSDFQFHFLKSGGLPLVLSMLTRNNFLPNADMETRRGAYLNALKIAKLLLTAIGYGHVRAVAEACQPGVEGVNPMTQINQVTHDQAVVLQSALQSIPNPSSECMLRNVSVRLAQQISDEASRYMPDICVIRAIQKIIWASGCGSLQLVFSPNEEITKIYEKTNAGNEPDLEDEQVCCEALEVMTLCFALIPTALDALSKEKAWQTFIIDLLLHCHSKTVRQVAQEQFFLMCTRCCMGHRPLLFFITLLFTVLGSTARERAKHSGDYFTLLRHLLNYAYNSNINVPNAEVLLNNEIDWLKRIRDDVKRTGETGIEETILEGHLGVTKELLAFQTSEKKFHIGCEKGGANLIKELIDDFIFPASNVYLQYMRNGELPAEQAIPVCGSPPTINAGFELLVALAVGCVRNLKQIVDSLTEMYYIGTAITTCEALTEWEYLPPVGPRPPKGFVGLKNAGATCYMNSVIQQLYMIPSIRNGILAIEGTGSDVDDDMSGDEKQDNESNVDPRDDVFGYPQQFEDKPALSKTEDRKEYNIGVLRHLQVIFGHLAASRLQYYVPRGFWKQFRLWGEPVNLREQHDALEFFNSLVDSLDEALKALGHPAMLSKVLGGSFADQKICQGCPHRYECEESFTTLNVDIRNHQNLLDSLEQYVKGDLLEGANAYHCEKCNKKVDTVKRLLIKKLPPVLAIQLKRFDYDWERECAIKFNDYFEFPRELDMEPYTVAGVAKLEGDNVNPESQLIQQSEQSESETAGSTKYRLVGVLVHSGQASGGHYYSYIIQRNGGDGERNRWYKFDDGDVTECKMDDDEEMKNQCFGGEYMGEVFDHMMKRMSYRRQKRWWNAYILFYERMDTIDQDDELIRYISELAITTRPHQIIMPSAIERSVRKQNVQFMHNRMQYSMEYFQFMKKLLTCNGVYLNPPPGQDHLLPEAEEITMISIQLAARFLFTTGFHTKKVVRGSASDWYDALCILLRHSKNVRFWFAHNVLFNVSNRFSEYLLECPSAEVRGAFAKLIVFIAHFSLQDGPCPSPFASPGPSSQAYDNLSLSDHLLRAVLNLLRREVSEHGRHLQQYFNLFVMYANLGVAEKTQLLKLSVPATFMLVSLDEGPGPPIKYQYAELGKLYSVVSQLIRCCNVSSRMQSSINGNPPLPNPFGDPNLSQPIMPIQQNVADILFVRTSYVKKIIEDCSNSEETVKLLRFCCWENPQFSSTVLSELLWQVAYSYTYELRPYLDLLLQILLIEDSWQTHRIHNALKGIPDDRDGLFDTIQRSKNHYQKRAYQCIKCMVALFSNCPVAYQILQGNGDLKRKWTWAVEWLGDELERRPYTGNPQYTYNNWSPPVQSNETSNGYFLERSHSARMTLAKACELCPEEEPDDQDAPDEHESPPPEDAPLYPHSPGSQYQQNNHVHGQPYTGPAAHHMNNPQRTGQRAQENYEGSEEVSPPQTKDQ
Sequence of Ubiquitin carboxyl-terminal hydrolase 7 (Homo sapiens) (Q93009 whole entry, looked up): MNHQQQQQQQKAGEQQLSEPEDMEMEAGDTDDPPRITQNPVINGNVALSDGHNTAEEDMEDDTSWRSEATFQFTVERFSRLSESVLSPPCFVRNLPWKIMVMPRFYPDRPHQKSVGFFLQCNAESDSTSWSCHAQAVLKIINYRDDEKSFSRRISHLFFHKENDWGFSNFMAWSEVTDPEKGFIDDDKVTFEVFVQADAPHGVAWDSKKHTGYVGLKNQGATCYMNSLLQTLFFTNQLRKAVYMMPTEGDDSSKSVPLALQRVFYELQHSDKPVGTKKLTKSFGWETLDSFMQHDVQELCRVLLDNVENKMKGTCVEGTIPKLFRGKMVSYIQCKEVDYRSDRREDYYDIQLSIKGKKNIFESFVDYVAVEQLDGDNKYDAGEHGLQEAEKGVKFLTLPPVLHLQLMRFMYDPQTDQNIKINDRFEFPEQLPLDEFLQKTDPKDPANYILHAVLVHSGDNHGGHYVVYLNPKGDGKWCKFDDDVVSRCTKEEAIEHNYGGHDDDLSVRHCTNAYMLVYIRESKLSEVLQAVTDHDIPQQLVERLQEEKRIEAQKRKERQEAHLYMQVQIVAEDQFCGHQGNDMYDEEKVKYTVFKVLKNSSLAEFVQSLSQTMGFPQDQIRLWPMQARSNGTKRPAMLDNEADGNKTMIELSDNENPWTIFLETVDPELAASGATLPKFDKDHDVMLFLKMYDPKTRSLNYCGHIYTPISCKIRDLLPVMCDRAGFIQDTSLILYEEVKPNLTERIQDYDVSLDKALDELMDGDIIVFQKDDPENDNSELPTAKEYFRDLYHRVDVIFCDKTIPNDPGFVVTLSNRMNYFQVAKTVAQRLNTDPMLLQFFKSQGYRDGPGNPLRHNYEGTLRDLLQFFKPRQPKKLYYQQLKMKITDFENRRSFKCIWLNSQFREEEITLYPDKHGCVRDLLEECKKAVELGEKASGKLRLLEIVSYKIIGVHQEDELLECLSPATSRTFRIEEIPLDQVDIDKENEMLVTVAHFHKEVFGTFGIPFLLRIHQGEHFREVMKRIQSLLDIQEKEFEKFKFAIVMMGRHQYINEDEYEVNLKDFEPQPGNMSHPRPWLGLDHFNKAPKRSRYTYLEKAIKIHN

Compound: COc1ncnc(C2CC2)c1-c1ncc2ccc(=O)n(Cc3ccc(-c4nc(C(F)(F)F)cn4C(C)C)cc3)c2n1
- Cmax [1]: 4780 ng/mL
- half-life [2]: 7.61 h
- Activity [3]: Active
- inhibition [4]: inactive
- inhibition [5]: inactive
- inhibition [6]: inactive
- inhibition [7]: inactive
- inhibition [8]: Active
- Activity [9]: Active
- inhibition at 0.1 µM [10]: 30%
